According to ChEMBL document CHEMBL1148876 (Bioorg Med Chem Lett, 2007):
Active and inactive are the calls of the source. The calls are words filed in the database; no cut-off is given here.

Key:
HEK293 = test: Cytotoxicity against HEK293 cells; type: functional, cell-based; conditions: Homo sapiens
[1] = Apparent permeability from apical to basolateral side in MDR-MDCK cells overexpressing human p-glycoprotein at 5 uM after 120 mins; type: ADME, cell-based; conditions: MDCK-MDR1
[2] = Apparent permeability from basolateral to apical side in MDR-MDCK cells overexpressing human p-glycoprotein at 5 uM after 120 mins; type: ADME, cell-based; conditions: MDCK-MDR1
MDCK = test: (§1) Ratio of permeability from basolateral to apical over apical to basolateral side of the MDR-MDCK cells at 5 uM after 120 mins; type: ADME, cell-based; conditions: human, mdck, 2 h, 5 µM
Tubulin (Homo sapiens) = Tubulin (Homo sapiens) (UniProt P68371+Q9H4B7+P0DPH7+P68366+Q13509+Q71U36+P04350+Q3ZCM7+P07437+P68363+Q9BQE3+Q6PEY2+Q13885+Q9BVA1+Q9BUF5); test: Effect on tubulin polymerization by microtubule polymerization assay; type: protein-complex assay
[3] = as §1; type: ADME, cell-based; conditions: human, MDCK-MDR1
[4] = Stability in PBS assessed as percentage of remaining compound after 24 hrs; type: physicochemical; conditions: read-out: Activity
[5] = Stability assessed as half life in PBS buffer; type: physicochemical
[6] = Stability assessed as half life in mouse plasma; type: ADME, cell-free
Homo sapiens = species: Homo sapiens; test: Stability assessed as half life in human plasma

CC(=O)O[C@@]12CO[C@@H]1C[C@H](O)[C@@]1(C)C(=O)[C@H](OC(=O)NCCO)C3=C(C)[C@@H](OC(=O)[C@H](O)[C@@H](NC(=O)c4ccccc4)c4ccccc4)C[C@@](O)([C@@H](OC(=O)c4ccccc4)[C@H]21)C3(C)C
IC50 (HEK293): 700 nM
Papp A→B at 2 h, 5 µM [1]: < 0.21 ×10⁻⁶ cm/s
Papp B→A at 2 h, 5 µM [2]: < 0.21 ×10⁻⁶ cm/s

CC(=O)O[C@@]12CO[C@@H]1C[C@H](O)[C@@]1(C)C(=O)[C@H](OC(=O)N(C)[C@H](C)[C@H](O)c3ccccc3)C3=C(C)[C@@H](OC(=O)[C@H](O)[C@@H](NC(=O)c4ccccc4)c4ccccc4)C[C@@](O)([C@@H](OC(=O)c4ccccc4)[C@H]21)C3(C)C
IC50 (HEK293): 24 nM
Papp A→B at 2 h, 5 µM [1]: < 0.2 ×10⁻⁶ cm/s
Papp B→A at 2 h, 5 µM [2]: 25.3 ×10⁻⁶ cm/s
Ratio (MDCK): > 127

CC(=O)O[C@@]12CO[C@@H]1C[C@H](O)[C@@]1(C)C(=O)[C@H](O)C3=C(C)[C@@H](OC(=O)[C@H](O)[C@@H](NC(=O)OC(C)(C)C)c4ccccc4)C[C@@](O)([C@@H](OC(=O)c4ccccc4)[C@H]21)C3(C)C.O.O.O [DOCETAXEL]
IC50 (HEK293): 27 nM
Papp A→B at 2 h, 5 µM [1]: < 0.62 ×10⁻⁶ cm/s
Activity (Tubulin (Homo sapiens)): inactive
Papp B→A at 2 h, 5 µM [2]: 15.5 ×10⁻⁶ cm/s
Ratio (MDCK): > 25

CC(=O)O[C@@]12CO[C@@H]1C[C@H](O)[C@@]1(C)C(=O)[C@H](O)C3=C(C)[C@@H](OC(=O)[C@H](O)[C@@H](NC(=O)c4ccccc4)c4ccccc4)C[C@@](O)([C@@H](OC(=O)c4ccccc4)[C@H]21)C3(C)C
IC50 (HEK293): 76 nM
Papp A→B at 2 h, 5 µM [1]: 0.13 ×10⁻⁶ cm/s
Papp B→A at 2 h, 5 µM [2]: 5.17 ×10⁻⁶ cm/s
efflux ratio at 2 h, 5 µM [3]: 39

CC(=O)O[C@@]12CO[C@@H]1C[C@H](O)[C@@]1(C)C(=O)[C@H](OC(=O)N3CCOCC3)C3=C(C)[C@@H](OC(=O)[C@H](O)[C@@H](NC(=O)c4ccccc4)c4ccccc4)C[C@@](O)([C@@H](OC(=O)c4ccccc4)[C@H]21)C3(C)C
Papp A→B at 2 h, 5 µM [1]: 0.17 ×10⁻⁶ cm/s
Papp B→A at 2 h, 5 µM [2]: 22.6 ×10⁻⁶ cm/s
efflux ratio at 2 h, 5 µM [3]: 133

CC(=O)O[C@@]12CO[C@@H]1C[C@H](O)[C@@]1(C)C(=O)[C@H](OC(=O)N[C@@H](C)C(=O)O)C3=C(C)[C@@H](OC(=O)[C@H](O)[C@@H](NC(=O)c4ccccc4)c4ccccc4)C[C@@](O)([C@@H](OC(=O)c4ccccc4)[C@H]21)C3(C)C
IC50 (HEK293): 3900 nM
Papp A→B at 2 h, 5 µM [1]: < 0.06 ×10⁻⁶ cm/s
Papp B→A at 2 h, 5 µM [2]: < 0.06 ×10⁻⁶ cm/s

CC(=O)O[C@@]12CO[C@@H]1C[C@H](O)[C@@]1(C)C(=O)[C@H](OC(=O)N(C)CC(=O)O)C3=C(C)[C@@H](OC(=O)[C@H](O)[C@@H](NC(=O)c4ccccc4)c4ccccc4)C[C@@](O)([C@@H](OC(=O)c4ccccc4)[C@H]21)C3(C)C
IC50 (HEK293): 1800 nM
Papp A→B at 2 h, 5 µM [1]: 0.06 ×10⁻⁶ cm/s
Papp B→A at 2 h, 5 µM [2]: 0.05 ×10⁻⁶ cm/s
Ratio (MDCK): 0.9

CC(=O)O[C@@]12CO[C@@H]1C[C@H](O)[C@@]1(C)C(=O)[C@H](OC(=O)NCC(=O)O)C3=C(C)[C@@H](OC(=O)[C@H](O)[C@@H](NC(=O)OC(C)(C)C)c4ccccc4)C[C@@](O)([C@@H](OC(=O)c4ccccc4)[C@H]21)C3(C)C
IC50 (HEK293): 1700 nM
Papp A→B at 2 h, 5 µM [1]: < 0.2 ×10⁻⁶ cm/s
Papp B→A at 2 h, 5 µM [2]: < 0.2 ×10⁻⁶ cm/s

CC(=O)O[C@@]12CO[C@@H]1C[C@H](O)[C@@]1(C)C(=O)[C@H](OC(=O)N(C)C(C)(C)C(=O)O)C3=C(C)[C@@H](OC(=O)[C@H](O)[C@@H](NC(=O)c4ccccc4)c4ccccc4)C[C@@](O)([C@@H](OC(=O)c4ccccc4)[C@H]21)C3(C)C
IC50 (HEK293): 1000 nM
Papp A→B at 2 h, 5 µM [1]: 0.05 ×10⁻⁶ cm/s
Papp B→A at 2 h, 5 µM [2]: 0.05 ×10⁻⁶ cm/s
Ratio (MDCK): 1

COC(=O)CNC(=O)O[C@H]1C(=O)[C@@]2(C)[C@H]([C@H](OC(=O)c3ccccc3)[C@]3(O)C[C@H](OC(=O)[C@H](O)[C@@H](NC(=O)c4ccccc4)c4ccccc4)C(C)=C1C3(C)C)[C@]1(OC(C)=O)CO[C@@H]1C[C@@H]2O
IC50 (HEK293): 60 nM
Papp A→B at 2 h, 5 µM [1]: < 0.62 ×10⁻⁶ cm/s
Papp B→A at 2 h, 5 µM [2]: 3.36 ×10⁻⁶ cm/s
Ratio (MDCK): > 5.4

CC(=O)O[C@H]1C(=O)[C@@]2(C)[C@H]([C@H](OC(=O)c3ccccc3)[C@]3(O)C[C@H](OC(=O)[C@H](O)[C@@H](NC(=O)c4ccccc4)c4ccccc4)C(C)=C1C3(C)C)[C@]1(OC(C)=O)CO[C@@H]1C[C@@H]2O [PACLITAXEL]
IC50 (HEK293): 10 nM
Papp A→B at 2 h, 5 µM [1]: 0.2 ×10⁻⁶ cm/s
remaining at 24 h [4]: 85.2%
Activity (Tubulin (Homo sapiens)): inactive
half-life [5]: > 60 h
half-life [6]: 30.1 h
Papp B→A at 2 h, 5 µM [2]: 28.5 ×10⁻⁶ cm/s

CC(=O)O[C@@]12CO[C@@H]1C[C@H](O)[C@@]1(C)C(=O)[C@H](OC(=O)NCC(=O)O)C3=C(C)[C@@H](OC(=O)[C@H](O)[C@@H](NC(=O)c4ccccc4)c4ccccc4)C[C@@](O)([C@@H](OC(=O)c4ccccc4)[C@H]21)C3(C)C
IC50 (HEK293): 8300 nM
Papp A→B at 2 h, 5 µM [1]: 0.09 ×10⁻⁶ cm/s
remaining at 24 h [4]: 91.6%
half-life [5]: > 60 h
half-life [6]: 31.3 h
Papp B→A at 2 h, 5 µM [2]: 0.05 ×10⁻⁶ cm/s
half-life (Homo sapiens): 52 h
efflux ratio at 2 h, 5 µM [3]: 0.6

CC(=O)O[C@@]12CO[C@@H]1C[C@H](O)[C@@]1(C)C(=O)[C@H](OC(=O)NCC(=O)N(C)C)C3=C(C)[C@@H](OC(=O)[C@H](O)[C@@H](NC(=O)c4ccccc4)c4ccccc4)C[C@@](O)([C@@H](OC(=O)c4ccccc4)[C@H]21)C3(C)C
IC50 (HEK293): 1000 nM
Papp A→B at 2 h, 5 µM [1]: 0.09 ×10⁻⁶ cm/s
Papp B→A at 2 h, 5 µM [2]: 0.8 ×10⁻⁶ cm/s
efflux ratio at 2 h, 5 µM [3]: 8.8

CC(=O)O[C@@]12CO[C@@H]1C[C@H](O)[C@@]1(C)C(=O)[C@H](OC(=O)NCCC(=O)O)C3=C(C)[C@@H](OC(=O)[C@H](O)[C@@H](NC(=O)c4ccccc4)c4ccccc4)C[C@@](O)([C@@H](OC(=O)c4ccccc4)[C@H]21)C3(C)C
IC50 (HEK293): 7400 nM
Papp A→B at 2 h, 5 µM [1]: < 0.64 ×10⁻⁶ cm/s
Papp B→A at 2 h, 5 µM [2]: < 0.64 ×10⁻⁶ cm/s

CC(=O)O[C@@]12CO[C@@H]1C[C@H](O)[C@@]1(C)C(=O)[C@H](OC(=O)N[C@H](C)C(=O)O)C3=C(C)[C@@H](OC(=O)[C@H](O)[C@@H](NC(=O)c4ccccc4)c4ccccc4)C[C@@](O)([C@@H](OC(=O)c4ccccc4)[C@H]21)C3(C)C
IC50 (HEK293): 2500 nM
Papp A→B at 2 h, 5 µM [1]: < 0.63 ×10⁻⁶ cm/s
Papp B→A at 2 h, 5 µM [2]: < 0.63 ×10⁻⁶ cm/s

CC(=O)O[C@@]12CO[C@@H]1C[C@H](O)[C@@]1(C)C(=O)[C@H](OC(=O)CCC(=O)O)C3=C(C)[C@@H](OC(=O)[C@H](O)[C@@H](NC(=O)c4ccccc4)c4ccccc4)C[C@@](O)([C@@H](OC(=O)c4ccccc4)[C@H]21)C3(C)C
IC50 (HEK293): 4700 nM
Papp A→B at 2 h, 5 µM [1]: 0.08 ×10⁻⁶ cm/s
remaining at 24 h [4]: 75.1%
half-life [5]: > 60 h
half-life [6]: 19.5 h
Papp B→A at 2 h, 5 µM [2]: 0.1 ×10⁻⁶ cm/s
half-life (Homo sapiens): 15.3 h
Ratio (MDCK): 1.3

CC(=O)O[C@@]12CO[C@@H]1C[C@H](O)[C@@]1(C)C(=O)[C@H](OC(=O)N[C@H]3CCOC3=O)C3=C(C)[C@@H](OC(=O)[C@H](O)[C@@H](NC(=O)c4ccccc4)c4ccccc4)C[C@@](O)([C@@H](OC(=O)c4ccccc4)[C@H]21)C3(C)C
IC50 (HEK293): 1900 nM
Papp A→B at 2 h, 5 µM [1]: < 0.07 ×10⁻⁶ cm/s
Papp B→A at 2 h, 5 µM [2]: 0.21 ×10⁻⁶ cm/s
Ratio (MDCK): > 3

CC(=O)O[C@H]1C(=O)[C@]2(C)[C@@H](OC(=O)NCC(=O)O)C[C@H]3OC[C@@]3(OC(C)=O)[C@H]2[C@H](OC(=O)c2ccccc2)[C@]2(O)C[C@H](OC(=O)[C@H](O)[C@@H](NC(=O)c3ccccc3)c3ccccc3)C(C)=C1C2(C)C
IC50 (HEK293): > 25000 nM
Papp A→B at 2 h, 5 µM [1]: 0.07 ×10⁻⁶ cm/s
Papp B→A at 2 h, 5 µM [2]: 0.06 ×10⁻⁶ cm/s
Ratio (MDCK): 0.9
